Reference: PMC9645382 (Drug development research, 2019)

The compounds below were run against T1, human neutrophil elastase (HNE) (Homo sapiens, UniProt P08246) (assay: HNE inhibition assay).
T1 sequence (P08246 30-267): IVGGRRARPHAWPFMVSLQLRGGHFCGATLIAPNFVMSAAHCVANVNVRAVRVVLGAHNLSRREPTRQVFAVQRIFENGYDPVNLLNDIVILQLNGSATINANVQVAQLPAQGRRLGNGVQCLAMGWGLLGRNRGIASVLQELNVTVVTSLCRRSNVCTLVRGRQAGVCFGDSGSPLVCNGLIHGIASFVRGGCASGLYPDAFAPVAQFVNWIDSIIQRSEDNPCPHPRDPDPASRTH
Format: biochemical
`O=C(C1CC1)n1cc(-c2ccccc2)c(=O)o1` [Compound 3a, 2-(Cyclopropanecarbonyl)-4-phenylisoxazol-5(2H)-one] was tested, and the IC50 was 16 ± 5 nM.
`Cc1ccc(-c2cn(C(=O)C3CC3)oc2=O)cc1` [Compound 3b, 2-(Cyclopropanecarbonyl)-4-(p-tolyl)isoxazol-5(2H)-one] was tested, and the IC50 was 26 ± 4 nM.
`Cc1cccc(-c2cn(C(=O)C3CC3)oc2=O)c1` [Compound 3c, 2-(Cyclopropanecarbonyl)-4-(m-tolyl)isoxazol-5(2H)-one] showed an IC50 of 22 ± 5 nM.
`Cc1ccccc1-c1cn(C(=O)C2CC2)oc1=O` [Compound 3d, 2-(Cyclopropanecarbonyl)-4-(o-tolyl)isoxazol-5(2H)-one] gave an IC50 of 39 ± 11 nM.
`O=C(C1CC1)n1cc(-c2ccc(Br)cc2)c(=O)o1` [Compound 3e, 4-(4-Bromophenyl)-2-(cyclopropanecarbonyl)isoxazol-5(2H)-one] gave an IC50 of 31 ± 3 nM.
Compound `O=C(C1CC1)n1cc(-c2ccc(Cl)cc2)c(=O)o1` [Compound 3f, 4-(4-Chlorophenyl)-2-(cyclopropanecarbonyl)isoxazol-5(2H)-one] has an IC50 of 42 ± 8 nM.
`COc1ccc(-c2cn(C(=O)C3CC3)oc2=O)cc1` [Compound 3g, 2-(Cyclopropanecarbonyl)-4-(4-methoxyphenyl)isoxazol-5(2H)-one] was tested, and the IC50 was 11 ± 3 nM.
In the case of `N#Cc1ccc(-c2cn(C(=O)C3CC3)oc2=O)cc1` [Compound 3h, 4-(2-(Cyclopropanecarbonyl)-5-oxo-2,5-dihydroisoxazol-4-yl)benzonitrile], the IC50 is reported as 18 ± 5 nM.
In the case of `O=C(C1CC1)n1cc(-c2ccc(C(F)(F)F)cc2)c(=O)o1` [Compound 3i, 2-(Cyclopropanecarbonyl)-4-(4-(trifluoromethyl)phenyl)isoxazol-5(2H)-one], the IC50 is reported as 33 ± 1 nM.
`Cc1cccc(C(=O)n2cc(-c3ccccc3)c(=O)o2)c1` [Compound 4a, 2-(3-Methylbenzoyl)-4-phenylisoxazol-5(2H)-one] was tested, and the IC50 was 46 ± 12 nM.
Work on `Cc1ccc(-c2cn(C(=O)c3cccc(C)c3)oc2=O)cc1` [Compound 4b, 2-(3-Methylbenzoyl)-4-(p-tolyl)isoxazol-5(2H)-one] yielded an IC50 of 22 ± 7 nM.
`Cc1cccc(C(=O)n2cc(-c3cccc(C)c3)c(=O)o2)c1` [Compound 4c, 2-(3-Methylbenzoyl)-4-(m-tolyl)isoxazol-5(2H)-one] showed an IC50 of 31 ± 3 nM.
`Cc1cccc(C(=O)n2cc(-c3ccccc3C)c(=O)o2)c1` [Compound 4d, 2-(3-Methylbenzoyl)-4-(o-tolyl)isoxazol-5(2H)-one] gave an IC50 of 28 ± 3 nM.
`Cc1cccc(C(=O)n2cc(-c3ccc(Br)cc3)c(=O)o2)c1` [Compound 4e, 4-(4-Bromophenyl)-2-(3-methylbenzoyl)isoxazol-5(2H)-one] was tested, and the IC50 was 47 ± 7 nM.
`Cc1cccc(C(=O)n2cc(-c3ccc(Cl)cc3)c(=O)o2)c1` [Compound 4f, 4-(4-Chlorophenyl)-2-(3-methylbenzoyl)isoxazol-5(2H)-one] was tested, and the IC50 was 25 ± 2 nM.
`COc1ccc(-c2cn(C(=O)c3cccc(C)c3)oc2=O)cc1` [Compound 4g, 4-(4-Methoxyphenyl)-2-(3-methylbenzoyl)isoxazol-5(2H)-one] gave an IC50 of 23 ± 7 nM.
With `Cc1cccc(C(=O)n2cc(-c3ccc(C#N)cc3)c(=O)o2)c1` [Compound 4h, 4-(2-(3-Methylbenzoyl)-5-oxo-2,5-dihydroisoxazol-4-yl)benzonitrile] the IC50 was 78 ± 2 nM.
`Cc1cccc(C(=O)n2cc(-c3ccc(C(F)(F)F)cc3)c(=O)o2)c1` [Compound 4i, 2-(3-Methylbenzoyl)-4-(4-[trifluoromethyl]phenyl)isoxazol-5(2H)-one] gave an IC50 of 81 ± 28 nM.
